These results are taken from ChEMBL document CHEMBL5226309, “Synthetic RNA Modulators in Drug Discovery” (J Med Chem, 2021).

Experiment [1] is described as follows: Binding affinity to telomeric RNA (unknown origin) assessed as dissociation constant.
A short description of experiment [2]: Inhibition of Precursor microRNA-96 (unknown origin) relative to control. The settings on record: concentration not given here.
Experiment [3] can be described thus: Binding affinity to DNA hairpin (unknown origin) assessed as dissociation constant.
A short description of experiment [4]: Binding affinity to Precursor microRNA-96 (unknown origin) assessed as dissociation constant.
Experiment [5] is described as follows: Inhibition of r(CCUG)12-MBNL1 (unknown origin) by gel electrophoretic mobility shift assay. More on the design: species or system Homo sapiens. On the technique in general: Mobility shift assays separate free from complexed probe on a gel.
The target in experiment [6] is T1, Muscleblind-like protein 1 (Homo sapiens, UniProt Q9NR56).
T1 sequence (Q9NR56 whole entry): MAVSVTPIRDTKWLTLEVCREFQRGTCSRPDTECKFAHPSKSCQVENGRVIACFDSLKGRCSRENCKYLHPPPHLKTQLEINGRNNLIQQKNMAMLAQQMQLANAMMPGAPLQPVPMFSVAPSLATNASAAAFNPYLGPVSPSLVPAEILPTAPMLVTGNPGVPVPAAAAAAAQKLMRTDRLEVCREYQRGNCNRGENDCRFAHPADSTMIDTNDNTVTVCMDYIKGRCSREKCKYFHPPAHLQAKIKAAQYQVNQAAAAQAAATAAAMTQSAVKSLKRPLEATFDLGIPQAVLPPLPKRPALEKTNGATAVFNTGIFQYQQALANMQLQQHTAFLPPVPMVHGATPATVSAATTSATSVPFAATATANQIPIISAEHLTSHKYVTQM
Description: Binding affinity to MBNL1 (unknown origin) assessed as dissociation constant.

Experiment [7] is described as follows: Binding affinity to r(CCUG)12 (unknown origin) assessed as dissociation constant.
Experiment [8] is described as follows: Binding affinity to HIV-1 mRNA assessed as dissociation constant. More on the design: species or system Human immunodeficiency virus 1.
Experiment [9] concerns Human immunodeficiency virus 1. Kind of experiment: Antiviral activity against HIV-1. The class given is functional, organism-based.
The subject of another experiment is U-251. Kind of experiment: Induction of apoptosis in human U-251 cells at 100 uM. The class given is functional.
The test system of a further experiment is MCF7. Kind of experiment: Induction of apoptosis in human MCF7 cells at 100 uM. The class given is functional.
Experiment [10] deals with T2, Microtubule-associated protein tau (Homo sapiens, UniProt P10636). Description: Inhibition of tau in human LA-N-5 cells assessed as reduction in 4R/3R ratio. In kind it is cell-based. The settings on record: concentration not given here.
T2 sequence (P10636 whole entry): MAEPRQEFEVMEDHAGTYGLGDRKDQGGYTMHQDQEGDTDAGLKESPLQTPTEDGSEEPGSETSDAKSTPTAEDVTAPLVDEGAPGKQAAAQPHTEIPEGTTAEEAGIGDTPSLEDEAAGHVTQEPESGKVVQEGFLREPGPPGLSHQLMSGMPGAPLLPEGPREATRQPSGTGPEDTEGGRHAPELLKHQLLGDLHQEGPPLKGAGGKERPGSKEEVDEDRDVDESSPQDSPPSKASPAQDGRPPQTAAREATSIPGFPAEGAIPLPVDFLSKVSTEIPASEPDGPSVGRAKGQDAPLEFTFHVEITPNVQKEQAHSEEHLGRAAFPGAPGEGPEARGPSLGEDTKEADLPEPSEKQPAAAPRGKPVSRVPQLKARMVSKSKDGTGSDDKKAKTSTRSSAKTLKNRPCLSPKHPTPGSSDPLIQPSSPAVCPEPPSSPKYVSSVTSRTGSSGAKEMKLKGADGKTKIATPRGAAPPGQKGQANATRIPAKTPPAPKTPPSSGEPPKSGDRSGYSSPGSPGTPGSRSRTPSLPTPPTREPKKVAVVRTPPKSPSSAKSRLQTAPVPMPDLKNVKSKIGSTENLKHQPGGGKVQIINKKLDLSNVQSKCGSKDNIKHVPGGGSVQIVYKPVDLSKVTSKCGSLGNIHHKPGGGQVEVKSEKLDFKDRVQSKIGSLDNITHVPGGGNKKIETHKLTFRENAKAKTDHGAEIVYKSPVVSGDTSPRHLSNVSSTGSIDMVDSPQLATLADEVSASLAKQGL
In experiment [11] the target is T2, Microtubule-associated protein tau. Kind of experiment: Inhibition of tau (unknown origin).
The target in experiment [12] is Microtubule-associated protein tau (Rattus norvegicus) (UniProt P19332). Kind of experiment: Inhibition of tau in rat Primary cortical neuron cell assessed as reduction in 4R/3R ratio. The class given is cell-based. The note with it: concentration not given here.
Sequence of Microtubule-associated protein tau (Rattus norvegicus) (P19332 whole entry): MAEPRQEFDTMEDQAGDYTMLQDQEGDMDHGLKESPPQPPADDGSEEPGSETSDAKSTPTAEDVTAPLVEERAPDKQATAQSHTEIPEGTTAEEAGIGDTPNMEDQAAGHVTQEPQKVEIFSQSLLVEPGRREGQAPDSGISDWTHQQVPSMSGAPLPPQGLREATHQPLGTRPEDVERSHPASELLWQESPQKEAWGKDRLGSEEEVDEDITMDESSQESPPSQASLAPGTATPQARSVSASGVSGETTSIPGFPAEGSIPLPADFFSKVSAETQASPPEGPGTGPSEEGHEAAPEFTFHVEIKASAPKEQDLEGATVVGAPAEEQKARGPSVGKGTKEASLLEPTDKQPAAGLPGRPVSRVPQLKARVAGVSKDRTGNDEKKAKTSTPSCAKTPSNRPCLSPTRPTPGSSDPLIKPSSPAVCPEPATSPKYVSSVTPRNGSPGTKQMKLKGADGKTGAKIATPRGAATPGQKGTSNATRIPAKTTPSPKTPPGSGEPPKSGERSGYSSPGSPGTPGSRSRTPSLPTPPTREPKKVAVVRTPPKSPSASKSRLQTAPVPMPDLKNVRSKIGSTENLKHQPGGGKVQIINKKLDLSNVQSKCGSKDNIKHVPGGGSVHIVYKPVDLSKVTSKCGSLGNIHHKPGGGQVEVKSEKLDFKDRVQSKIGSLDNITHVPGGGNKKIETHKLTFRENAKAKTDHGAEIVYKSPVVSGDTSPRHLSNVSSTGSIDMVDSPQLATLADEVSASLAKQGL
The target of experiment [13] is T2, Microtubule-associated protein tau. Kind of experiment: Binding affinity to tau (unknown origin).
The nature of experiment [14]: Effect on tau protein expression in human SH-SY5Y cells. In kind it is functional, cell-based.
Experiment [15] in a line: Inhibition of miR-18a (unknown orgin) production.
Experiment [16] can be described thus: Binding affinity to miR-18a (unknown orgin) assessed as dissociation constant.
The test system of experiment [17] is Human immunodeficiency virus 1. Description: Antiviral activity against HIV-1 infected in human T cell line assessed as inhibition of DNA replication. The class given is functional, organism-based. The settings on record: Human immunodeficiency virus 1, T-cell.
A further experiment concerns HeLa. Description: Cytotoxicity against human HeLa cells. In kind it is functional.
Experiment [18] is described as follows: Binding affinity to Precursor microRNA-210 (unknown origin) assessed as dissociation constant.
For a further experiment, the system named is MDA-MB-231. Description: Inhibition of Precursor microRNA-210 in human MDA-MB-231 cells at 200 nM relative to control. In kind it is cell-based.
A short description of experiment [19]: Downregulation of alpha-Synuclein level in human SH-SY5Y cells at 1 uM relative to control. The class given is functional.
For experiment [20], the system named is Escherichia coli. Kind of experiment: In vivo antibacterial activity against Escherichia coli MB5746 infected in DBA/2J mouse assessed as log 10 reduction in CFU in spleen at 60 mg/kg, sc administered every 3 hrs for 24 hrs (reference value: 9.53 log10 CFU). In kind it is functional.
For experiment [21], the system named is Escherichia coli. Kind of experiment: Antibacterial activity against Escherichia coli MB5746. The class given is functional, organism-based.
Experiment [22] deals with Escherichia coli. Kind of experiment: In vivo antibacterial activity against Escherichia coli MB5746 infected in DBA/2J mouse assessed as log 10 reduction in CFU in spleen at 120 mg/kg, sc administered every 3 hrs for 24 hrs (reference value: 9.53 log10 CFU). In kind it is functional.
Experiment [23] in a line: Binding affinity to Precursor microRNA-515 (unknown origin) assessed as dissociation constant.

The structures appear in SMILES notation.

One may read the Kd as the concentration at which binding is half-saturated. As for `O=c1c2cc(-c3ccco3)sc2nc2n1Cc1nc3sc(-c4ccco4)cc3c(=O)n1C2`, the Kd in [1] is 5.9 µM.
The term inhibition denotes how much of the control response was suppressed. For `CCCN(CC(=O)N(CCC)CC(=O)N(CC(N)=O)Cc1cn(CCCNC(=O)CCCOc2c(C(C)(C)C)cc(-c3nc4cc(N5CCN(C)CC5)ccc4[nH]3)cc2C(C)(C)C)nn1)C(=O)CCCOc1cccc(-c2nc3ccc(-c4nc5ccc(N6CCN(C)CC6)cc5[nH]4)cc3[nH]2)c1`, the inhibition in experiment [2] is 50%. The figures for the Kd in experiment [3] and in experiment [4] were more than 50 µM and 0.085 µM, respectively.
In general, IC50 refers to the point on the concentration scale where inhibition reaches its midpoint. As for `N=C(NCCCCNc1nc(N)nc(N)n1)c1ccc(C(=N)NCCCCNc2nc(N)nc(N)n2)cc1`, the IC50 in [5] is 115 µM. Besides, the Kd in experiment [6] is more than 200 µM; in experiment [7] it was 8 µM.
As for `CC(=O)Nc1nc(CC(=O)c2cccc(NC(=O)[C@@H](N)CCCCNC(=N)N)c2)cs1`, the Kd in experiment [8] stood at 0.11 µM. Also, the half-maximal inhibitory concentration (IC50) in experiment [9] was determined as 0.41 µM.
Turning to `NC(=O)c1ncn2c(=O)n(NC(=O)c3nc4c(N)cccc4[nH]3)nnc12`, the Activity in the experiment with U-251 and in the experiment with MCF7 was 30% each time.
As for `COc1ccc2[nH]c3c(c2c1)N=CN(CCCN(C)C1CCCCC1)C3`, the results for the inhibition in [10] and in experiment [12] were 40% and 50%, respectively. This compound also registered a half-maximal inhibitory concentration (IC50) in experiment [11] of 2.1 µM. Besides, the affinity in experiment [13], expressed as Kd, was 4.9 µM.
For orientation: EC50 means the concentration giving half of the maximal effect. Read a low EC50 as a more potent agent. For `N=C(N)NC[C@H]1O[C@H](O[C@@H]2[C@@H](OCCSSCCNCCNc3ccc(NCCNCCO)c4c3C(=O)c3ccccc3C4=O)[C@H](O)[C@@H](NC(=N)N)C[C@H]2NC(=N)N)[C@H](NC(=N)N)[C@@H](O)[C@@H]1O`, a half-maximal response in experiment [14] (EC50) required 0.0572 µM.
`CN1CCN(c2ccc(-c3ccc4nc(-c5cc(C(C)(C)C)c(OCCCC(=O)NCCCN=[N+]=[N-])c(C(C)(C)C)c5)[nH]c4c3)cc2)CC1` displayed an IC50 in experiment [15] of 10 µM. Further, in [16], the Kd turned out to be 32 µM.
`O=C1c2c(O)ccc(O)c2C(=O)c2c(NCCNCCO)ccc(NCCNCCO)c21` [MITOXANTRONE]: in [17], the IC50 came to 23.1 µM. In the experiment on HeLa, this compound returned an Activity of 1 µM.
Turning to `CN1CCN(c2ccc3nc(-c4ccc(OCCCC(=O)NCCCOCC(O)COP(=O)(O)O[C@@H]5[C@H](O)[C@@H](COP(=O)(O)O[C@@H]6[C@H](O)[C@@H](COP(=O)(O)O[C@@H]7[C@H](O)[C@@H](COP(=O)(O)O[C@@H]8[C@H](O)[C@@H](COP(=O)(O)O)O[C@H]8n8cnc9c(N)ncnc98)O[C@H]7n7cnc8c(N)ncnc87)O[C@H]6n6cnc7c(N)ncnc76)O[C@H]5n5cnc6c(N)ncnc65)cc4)[nH]c3c2)CC1` (some centres not stated), the Kd in [18] amounted to 0.34 µM. The compound further had an inhibition in the experiment with MDA-MB-231 of 50%.
`N=C(N)c1ccc(Nc2ccc(-c3cc4ccc(C(=N)N)cc4[nH]3)cc2)cc1` came in with an Activity in experiment [19] of 67%.
As for `CNc1ncc(CN2CCCC(c3nc(O)cc(-c4cccs4)n3)C2)cn1` (configuration not stated), the results for the Activity in the experiment on Escherichia coli [20] and in the experiment on Escherichia coli [22] were 7.76 log10CFU/g and 6.24 log10CFU/g, respectively. The compound further returned a half-inhibitory concentration (IC50) with Escherichia coli [21] of 0.3 µM.
For the compound `CCCN(CC(=O)N(CCC)CC(=O)N(CCC)CC(=O)N(CCC)CC(=O)N(CC(N)=O)Cc1cn(CCCNC(=O)CCCOc2c(C(C)(C)C)cc(-c3nc4ccc(-c5ccc(N6CCN(C)CC6)cc5)cc4[nH]3)cc2C(C)(C)C)nn1)C(=O)CNCc1cn(CCCNC(=O)CCCOc2c(C(C)(C)C)cc(-c3nc4ccc(-c5ccc(N6CCN(C)CC6)cc5)cc4[nH]3)cc2C(C)(C)C)nn1`, the Kd in experiment [23] is 0.06 µM.
